# In patent publication US20250302840A1, “COMBINATION THERAPIES” (Janssen Pharmaceutica NV, priority 2021, published 2025):
# Structures can show the parent of a compound that is named as a salt. Marks after values point to notes of the source that are not given here.
# How the values were obtained:
# [1] = tested on: MOLM-13 tumors; assay: Efficacy of combinations in MOLM-13 (KMT2a-r) IV model in NSG mice; format: in vivo; settings: azacitidine 2 mg/kg ip QD × 7; venetoclax 100 mg/kg po QD × 28; Compound A1 10 mg/kg po QD × 28
# Procedure: Each mouse received an injection of 1×10^5 MOLM-13 cells, and all other parameters were conducted as described for experiment (10).
# [2] = tested on: OCI-AML3 tumors; assay: Efficacy of combinations in OCI-AML3 (NPM1c) IV model in NSG mice; format: in vivo; settings: azacitidine 2 mg/kg ip QD × 7; venetoclax 100 mg/kg po QD × 28; Compound A1 30 mg/kg po QD × 28
# Procedure: Median survival was determined utilizing Kaplan-Meier survival analysis.
# [3] = Mouse PK (in vivo T1/2 and oral bioavailability); parameters: species or system CD-1 mice; settings: for In vivo T1/2 (IV): IV 0.5 or 1.0 mg/kg
# Procedure: In vivo pharmacokinetics (PK) were assessed in fasted male CD-1 mice (age 6-8 weeks) following a single intravenous (IV, 0.5 or 1.0 mg/kg administered at 2.5 ml/kg) or oral (PO, 5 mg/kg administered at 10 ml solution/kg) dose of test article formulated in a 20% (w:vol) HP-β-CD solution or in Pyrogen free water.
# Plasma and/or whole blood samples were collected from the dorsal metatarsal vein at desired timepoints via serial capillary microsampling (approx. 0.03 mL) using EDTA as an anticoagulant. Concentrations of compound in the plasma and blood samples were analyzed using a qualified LC-MS/MS method. In silico analysis of main pharmacokinetic parameters was performed using WinNonlin (Phoenix™, version 6.1) or similar software.)
# [4] = tested on: iCell® Cardiomyocytes2; assay: Ca2+-fluorescence assay in human pluripotent stem cell-derived cardiomyocytes (CTCM human); format: cell-based; parameters: key to Hazard scoring, Color @ 0.1 μM / Hazard scoring, Color @ 0.2 μM / Hazard scoring, Color @ 0.5 μM / Hazard scoring, Color @ 1 μM / Hazard scoring, Color @ 2.5 μM / Hazard scoring, Color @ 5 μM / Hazard scoring, Color @ 0.3 μM / Hazard scoring, Color @ 3 μM / Hazard scoring, Color @ 10 μM / Hazard scoring, Color @ 30 μM: Green: No concern; Yellow: Low concern; Red: High concern; Black: Very high concern due to arrhythmic events
# Procedure: Compounds were tested in the 96-well plates.
# Compounds were tested at 0.1 μM, 0.2 μM, 0.5 μM, 1 μM, 2.5 μM and 5 μM (n=4 per dose) on Cor.4U®-Cardiomyocytes or on iCell® Cardiomyocytes2.
# Alternatively, compounds were tested at 0.1 μM, 0.3 μM; 1 μM, 3 μM, 10 μM and 30 μM (n=4 per dose) mostly on iCell® Cardiomyocytes2.
# Vehicle control: Dimethylsulfoxide (DMSO). The solutions of the compound in DMSO or its solvent (final concentration of 0.1% DMSO; n=8).
# Tested compounds were dissolved in DMSO at 1000-fold the intended concentrations.
# A compound “mother-plate” was made, containing the test compounds and positive and negative controls at 1000-fold the final concentrations. At the experiment day, these stock solutions were diluted with Tyrode (Sigma), supplemented with 10 mM HEPES (Gibco), to 2-fold the intended concentration (in round bottom compound plates). Final DMSO concentration in test solutions and vehicle control was 0.1%.
# Second line hSC derived cardiomyocyte called iCell® Cardiomyocytes2 were purchased from FUJIFILM Cellular Dynamics (USA). The experiments with test drugs are carried out 5 to 7 days after plating the cells onto the plate to have a living, beating monolayer of hiPSC-derived cardiomyocytes. The beating monolayer in 96-well-plates are normally taken from 2 Vials of frozen iCell® Cardiomyocytes2 (˜5 million cells/vial), which will be plated onto […] 96-well plates (z50K/well).
# At least one hour before the start of the experiments the normal cell medium was replaced with Tyrode solution with Calcium dye (see below).
# Cal 520 dye (AAT Bioquest) was dissolved in 11 ml of Tyrode supplemented with 10 mM HEPES and warmed up to 37 C before adding to the cells.
# 35 μl cell culture medium was removed from each well and replaced with 35 μl of pre-warmed Cal 520 dye solution and cell plate was incubated for 45 min at 37° C./5% CO2. Cells were incubated for 5 min at 37° C.
# Spontaneous electrical activity is recorded, using Cal520™ (AAT Bioquest) calcium fluorescence-dye signalling. This dye integrates the total intracellular calcium activity over the whole well. A bottle of Cal520 dye ([…], MW: 1103/mol) is dissolved with 50 μl DMSO as a stock solution of 0.9 mM. 50 μL of the stock solution of the dye was added to 10 ml Tryodes solution to have dye concentration of 4.5 μM. Subsequently, 35 μl of this dye solution was added into each well, to have a final dye concentration of 1.58 μM. The current dye protocol on this CTCM human assay was established recently (Ivan Kopljar et al, Journal of Pharmacological and toxicological methods 2018. 91: 80-86; Lu et al., Tox Sci 2019. 170 (2): 345-356).
# Fluorescent signals (Ca^2+ transient morphology) were measured using the Functional Drug Screen System (FDSS/pCell; Hamamatsu, Japan) and the recordings were subsequently analyzed off-line, using appropriate software e.g., Notocord.
# The cell plate was loaded into the FDSS/pCell for a test run: Ca^2+ transients were measured for 4 minutes to check for synchronous beating of the cardiomyocytes in each well. All 96 wells were measured simultaneously (sampling interval: 0.06 s, short exposure time: 10 ms; excitation wavelength 480 nm; emission wavelength 540 nm; FDSS/pCell warmed to 37° C.).
# During the compound addition step, 100 μl of the respective double-concentrated test solutions was pipetted into each well simultaneously.
# Data were analyzed off-line using appropriate software e.g., Notocord-Hem (version 4.3).
# The following parameters of the Ca^2+ transient morphology were measured: • beat rate (BR) • amplitude of the Ca^2+ transient (Amp), • CTD90: Ca^2+ transient duration at 90% (time to 90% of the initial base value).
# The presence of various ‘arrhythmia-like’ activities were also noted during the experimental periods. […]
# [5] = efficacious dose in mouse xenograft models of 30 mg/kg, (mouse, human)
Structure (SMILES),% ILS [1],"Hazard scoring, Color @ 0.1 μM ([4]; 30 min incubation, Table 12)","Hazard scoring, Color @ 0.3 μM ([4]; 30 min incubation, Table 12)","Hazard scoring, Color @ 1 μM ([4]; 30 min incubation, Table 12)","Hazard scoring, Color @ 3 μM ([4]; 30 min incubation, Table 12)","Hazard scoring, Color @ 10 μM ([4]; 30 min incubation, Table 12)","Hazard scoring, Color @ 30 μM ([4]; 30 min incubation, Table 12)",also measured
"CC1(C)CCC(CN2CCN(c3ccc(C(=O)NS(=O)(=O)c4ccc(NCC5CCOCC5)c([N+](=O)[O-])c4)c(Oc4cnc5[nH]ccc5c4)c3)CC2)=C(c2ccc(Cl)cc2)C1 [Venetoclax, reference compound]",6%,,,,,,,% ILS [2]: 0 (ns) %
"CCN(C(=O)c1cc(F)ccc1Oc1nncnc1N1CCC2(C1)CN([C@H](CCCN(C)CCOC)C(C)C)C2)C(C)C [Compound A, (R)—N-ethyl-5-fluoro-N-isopropyl-2-((5-(2-(6-((2-methoxyethyl) (methyl)amino)-2-methylhexan-3-yl)-2,6-diazaspiro[3.4]octan-6-yl)-1,2,4-triazin-6-yl)oxy) benzamide]",,,,,,,,"In vivo T1/2 (IV) ([3]; formulating agent HP-β-CD): 6.7 h; Bioavailability (PO) ([3]; PO 5 mg/kg, formulating agent HP-β-CD): 17%"
"CCN(C(=O)c1cc(F)ccc1Oc1nncnc1N1CCC2(C1)CN([C@H](CCCNCCOC)C(C)C)C2)C(C)C [Compound 11, (R)—N-ethyl-5-fluoro-N-isopropyl-2-((5-(2-(6-((2-methoxyethyl)amino)-2-methylhexan-3-yl)-2,6-diazaspiro[3.4]octan-6-yl)-1,2,4-triazin-6-yl)oxy)benzamide]",,Green,Green,Green,Green,Green,Green,
CCN(C(=O)c1cc(F)ccc1Oc1nncnc1N1CCC2(C1)CN([C@H](CCCN(C)CCOC)C(C)C)C2)C(C)C [Compound A1],35* %,Green,Green,Green,Green,Green,yellow,"Margin CTCM human 10 μM vs free Cmax [4, 5]: > 16; Margin CTCM human 30 μM vs free Cmax [4, 5]: > 45"
"CCN(C(=O)c1cc(F)ccc1Oc1nncnc1N1CCC2(C1)CN([C@H](CCCN(C)CCOC)C(C)C)C2)C(C)C [Compound A3, (R)—N-ethyl-5-fluoro-N-isopropyl-2-((5-(2-(6-((2-methoxyethyl) (methyl)amino)-2-methylhexan-3-yl)-2,6-diazaspiro[3.4]octan-6-yl)-1,2,4-triazin-6-yl)oxy) benzamide oxalate]",,,,,,,,"Hazard scoring, Color @ 0.1 μM ([4]; 30 min incubation, Table 11): Green; Hazard scoring, Color @ 0.2 μM ([4]; 0.2 μM, 30 min incubation, Table 11): Green; Hazard scoring, Color @ 0.5 μM ([4]; 0.5 μM, 30 min incubation, Table 11): Green; Hazard scoring, Color @ 1 μM ([4]; 30 min incubation, Table 11): Green; Hazard scoring, Color @ 2.5 μM ([4]; 2.5 μM, 30 min incubation, Table 11): Green; Hazard scoring, Color @ 5 μM ([4]; 5 μM, 30 min incubation, Table 11): Green; In vivo T1/2 (IV) ([3]; formulating agent Pyrogen free water): 9.0 h"
